# From US12052991B2, “Substituted pyridinyloxybenzenes and salts thereof and use thereof as herbicidal agents” (Bayer Aktiengesellschaft, priority 2018, dated 2024)
# Tests used:
# Assay type in all cases: in vivo
# [1] = system: Echinochloa crus-galli (ECHCG); assay: Herbicidal post-emergence action (Table B1); details: rated visually after about 3 weeks, 100% = plants have died, 0% = like control plants
# Outline: (§1)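 Visual percent activity relative to untreated controls (100% = plants dead, 0% = like controls) was scored about 3 weeks after treatment. Plants had been sprayed at the one-leaf stage with formulated compound at 1280 or 320 g/ha in 600 L/ha water containing 0.5% additive.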
# Poa annua (POAAN) [2] = assay: Herbicidal post-emergence action (Table B3); details: rated visually after about 3 weeks, 100% = plants have died, 0% = like control plants
# Outline: as §1
# [3] = system: Abutilon theophrasti (ABUTH); assay: Herbicidal post-emergence action (Table B5); details: rated visually after about 3 weeks, 100% = plants have died, 0% = like control plants
# Outline: as §1
# [4] = system: Amaranthus retroflexus (AMARE); assay: Herbicidal post-emergence action (Table B6); details: visual rating about 3 weeks after treatment, 100% = plants have died, 0% = like control plants
# Outline: as §1
# Stellaria media (STEME) [5] = assay: Herbicidal post-emergence action (Table B8); details: visual rating about 3 weeks after treatment, 100% = plants have died, 0% = like control plants
# Outline: as §1
# [6] = system: Alopecurus myosuroides (ALOMY); assay: Herbicidal post-emergence action (Table B9); details: rated visually after about 3 weeks, 100% = plants have died, 0% = like control plants
# Outline: as §1
# [7] = system: Digitaria sanguinalis (DIGSA); assay: Herbicidal post-emergence action (Table B10); details: dosage 1280 g/ha; visual rating about 3 weeks after treatment; 100% = plants have died, 0% = like control plants
# Outline: as §1
# Bassia scoparia (KCHSC) [8] = assay: Herbicidal post-emergence action (Table B11); details: visual rating about 3 weeks after treatment, 100% = plants have died, 0% = like control plants
# Outline: as §1
# Veronica persica (VERPE) [9] = assay: Herbicidal post-emergence action (Table B12); details: visual rating about 3 weeks after treatment, 100% = plants have died, 0% = like control plants
# Outline: as §1
# [10] = system: Echinochloa crus-galli (ECHCG); assay: Herbicidal pre-emergence action, test C (Table C1); details: dosage 1280 g/ha; visual scoring after about 3 weeks; 100% = plants have died, 0% = like control plants
# Excerpt: (§2) Seeds of mono- and dicotyledonous weed plants were placed in plastic pots in sandy loam soil (doubly sown with one species each of mono- or dicotyledonous weed plants per pot) and covered with soil. The compounds of the invention, formulated in the form of wettable powders (WP) or as emulsion concentrates (EC), were then applied onto the surface of the covering soil as aqueous suspension or emulsion with addition of 0.5% additive at a water application rate of 600 liters per hectare (converted). After the treatment, the pots were placed in a greenhouse and kept under good growth conditions for the test plants. After about 3 weeks, the effect of the preparations was scored visually in comparison with untreated controls as percentages. For example, 100% activity=the plants have died, 0% activity=like control plants. Tables C1 to C12 below show the effects of selected compounds of the general formula (I) according to Table 1 on various harmful plants and an application rate corresponding to 1280 or 320 g/ha, which were obtained by the experimental procedure mentioned above.
# Poa annua (POAAN) [11] = assay: Herbicidal pre-emergence action, test C (Table C3); details: visual scoring after about 3 weeks, 100% = plants have died, 0% = like control plants
# Outline: (§3)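 Seeds are covered with sandy loam, and the formulated compound is applied to the soil surface before emergence at 1280 or 320 g/ha. Spray carries 0.5% additive at 600 L/ha. Damage is rated visually as percent versus untreated pots after roughly 3 weeks.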
# Setaria viridis (SETVI) = assay: Herbicidal pre-emergence action, test C (Table C4); details: dosage 1280 g/ha; visual scoring after about 3 weeks; 100% = plants have died, 0% = like control plants
# Outline: as §3
# [12] = system: Abutilon theophrasti (ABUTH); assay: Herbicidal pre-emergence action, test C (Table C5); details: visual scoring after about 3 weeks, 100% = plants have died, 0% = like control plants
# Outline: as §3
# [13] = system: Amaranthus retroflexus (AMARE); assay: Herbicidal pre-emergence action, test C (Table C6); details: visual scoring after about 3 weeks, 100% = plants have died, 0% = like control plants
# Outline: as §3
# [14] = system: Matricaria inodora (MATIN); assay: Herbicidal pre-emergence action, test C (Table C7); details: dosage 1280 g/ha; visual scoring after about 3 weeks; 100% = plants have died, 0% = like control plants
# Outline: as §3
# Stellaria media (STEME) [15] = assay: Herbicidal pre-emergence action, test C (Table C8); details: visual scoring after about 3 weeks, 100% = plants have died, 0% = like control plants
# Outline: as §3
# [16] = system: Alopecurus myosuroides (ALOMY); assay: Herbicidal pre-emergence action, test C (Table C9); details: visual scoring after about 3 weeks, 100% = plants have died, 0% = like control plants
# Excerpt: as §2
# [17] = system: Digitaria sanguinalis (DIGSA); assay: Herbicidal pre-emergence action, test C (Table C10); details: dosage 1280 g/ha; visual scoring after about 3 weeks; 100% = plants have died, 0% = like control plants
# Outline: as §3
# Bassia scoparia (KCHSC) [18] = assay: Herbicidal pre-emergence action, test C (Table C11); details: visual scoring vs untreated controls
# Excerpt: as §2
# Veronica persica (VERPE) [19] = assay: Herbicidal pre-emergence action, test C (Table C12); details: dosage 1280 g/ha, visual scoring vs untreated controls
# Outline: as §3
# [20] = system: harmful plants ABUTH, AMARE, ECHCG, LOLRI, MATIN, POAAN, SETVI, STEME, ALOMY, DIGSA, KCHSC and VERPE; assay: Herbicidal post-emergence action, summary of Tables B1-B12; details: application rate of 1280 or 320 g of active ingredient per hectare; summary in words
# Outline: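 Greenhouse weeds in sandy loam treated post-emergence at the one-leaf stage, 2–3 weeks after sowing, with WP or EC formulations sprayed with 0.5% additive at 600 L/ha water, 1280 or 320 g/ha. Damage rated visually after about 3 weeks versus untreated controls (0% = like control, 100% = dead).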
# [21] = system: harmful plants ABUTH, AMARE, ECHCG, LOLRI, MATIN, POAAN, SETVI, STEME, ALOMY, DIGSA, KCHSC and VERPE; assay: Herbicidal pre-emergence action (test C), summary of Tables C1-C12; details: application rate of 1280 or 320 g of active ingredient per hectare; summary in words
# Outline: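 Pre-emergence pot test in sandy loam: WP or EC formulations were sprayed onto the covering soil with 0.5% additive at 600 L/ha water, at 1280 or 320 g/ha. Plants were kept in the greenhouse, and activity was rated visually about 3 weeks later as % versus untreated controls (100% = dead).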
smiles,measurement,setting,value
FC(F)c1cc(-c2ccccc2Oc2ccccn2)on1 [Example 1-38],Post-emergence action against Echinochloa crus-galli (ECHCG),[1]; 320 g/ha,90%
same,Post-emergence action against Echinochloa crus-galli (ECHCG),[1]; 1280 g/ha,100%
same,Post-emergence action against Poa annua (POAAN),Poa annua (POAAN) [2]; 320 g/ha,100%
same,Post-emergence action against Poa annua (POAAN),Poa annua (POAAN) [2]; 1280 g/ha,100%
same,Post-emergence action against Abutilon theophrasti (ABUTH),[3]; 320 g/ha,100%
same,Post-emergence action against Abutilon theophrasti (ABUTH),[3]; 1280 g/ha,100%
same,Post-emergence action against Amaranthus retroflexus (AMARE),[4]; dosage 320 g/ha,100%
same,Post-emergence action against Amaranthus retroflexus (AMARE),[4]; dosage 1280 g/ha,100%
same,Post-emergence action against Stellaria media (STEME),Stellaria media (STEME) [5]; dosage 320 g/ha,100%
same,Post-emergence action against Stellaria media (STEME),Stellaria media (STEME) [5]; dosage 1280 g/ha,100%
same,Post-emergence action against Alopecurus myosuroides (ALOMY),[6]; 320 g/ha,100%
same,Post-emergence action against Alopecurus myosuroides (ALOMY),[6]; 1280 g/ha,100%
same,Post-emergence action against Digitaria sanguinalis (DIGSA),[7],100%
same,Post-emergence action against Bassia scoparia (KCHSC),Bassia scoparia (KCHSC) [8]; dosage 320 g/ha,90%
same,Post-emergence action against Bassia scoparia (KCHSC),Bassia scoparia (KCHSC) [8]; dosage 1280 g/ha,100%
same,Post-emergence action against Veronica persica (VERPE),Veronica persica (VERPE) [9]; dosage 320 g/ha,100%
same,Post-emergence action against Veronica persica (VERPE),Veronica persica (VERPE) [9]; dosage 1280 g/ha,100%
same,Pre-emergence action against Echinochloa crus-galli (ECHCG),[10],100%
same,Pre-emergence action against Poa annua (POAAN),Poa annua (POAAN) [11]; dosage 320 g/ha,100%
same,Pre-emergence action against Poa annua (POAAN),Poa annua (POAAN) [11]; dosage 1280 g/ha,100%
same,Pre-emergence action against Setaria viridis (SETVI),Setaria viridis (SETVI),100%
same,Pre-emergence action against Abutilon theophrasti (ABUTH),[12]; dosage 320 g/ha,100%
same,Pre-emergence action against Abutilon theophrasti (ABUTH),[12]; dosage 1280 g/ha,100%
same,Pre-emergence action against Amaranthus retroflexus (AMARE),[13]; dosage 320 g/ha,100%
same,Pre-emergence action against Amaranthus retroflexus (AMARE),[13]; dosage 1280 g/ha,100%
same,Pre-emergence action against Matricaria inodora (MATIN),[14],100%
same,Pre-emergence action against Stellaria media (STEME),Stellaria media (STEME) [15]; dosage 320 g/ha,100%
same,Pre-emergence action against Stellaria media (STEME),Stellaria media (STEME) [15]; dosage 1280 g/ha,100%
same,Pre-emergence action against Alopecurus myosuroides (ALOMY),[16]; dosage 320 g/ha,90%
same,Pre-emergence action against Alopecurus myosuroides (ALOMY),[16]; dosage 1280 g/ha,100%
same,Pre-emergence action against Digitaria sanguinalis (DIGSA),[17],100%
same,Pre-emergence action against Bassia scoparia (KCHSC),Bassia scoparia (KCHSC) [18]; dosage 320 g/ha,100%
same,Pre-emergence action against Bassia scoparia (KCHSC),Bassia scoparia (KCHSC) [18]; dosage 1280 g/ha,100%
same,Pre-emergence action against Veronica persica (VERPE),Veronica persica (VERPE) [19],100%
same,herbicidal activity against the harmful plants of Tables B1-B12 in post-emergence treatment,[20],very good herbicidal activity
same,herbicidal activity against the harmful plants of Tables C1-C12 in pre-emergence treatment,[21],very good herbicidal activity
